According to patent US20230346961A1, “GLP-1 AND GIP RECEPTOR CO-AGONISTS” (Novo Nordisk A/S, priority 2020, published 2023):
Starred links: 1 amine or outer side, 2 acyl side, 3 side chain; linkers in the order of their positions; H or OH if unused. Non-standard residues stand in square brackets, D forms with d. Residues, ends and D or L forms follow the SMILES beside them. Groups on a side chain read outwards from the residue. *: point of attachment. C18 diacid = O=C(O)CCCCCCCCCCCCCCCCC(=O)*; γGlu = O=C(O)[C@H](CCC(=O)[*:2])N[*:1]; εLys = N[C@@H](CCCCN[*:1])C(=O)[*:2]; Aib = CC(C)(N)C(=O)O

Experiments:
[1] = biological target: T1, mouse glucagon-like peptide 1 receptor (mouse, UniProt O35659 22-463); assay: cell-based or functional assay
T1 sequence (looked up): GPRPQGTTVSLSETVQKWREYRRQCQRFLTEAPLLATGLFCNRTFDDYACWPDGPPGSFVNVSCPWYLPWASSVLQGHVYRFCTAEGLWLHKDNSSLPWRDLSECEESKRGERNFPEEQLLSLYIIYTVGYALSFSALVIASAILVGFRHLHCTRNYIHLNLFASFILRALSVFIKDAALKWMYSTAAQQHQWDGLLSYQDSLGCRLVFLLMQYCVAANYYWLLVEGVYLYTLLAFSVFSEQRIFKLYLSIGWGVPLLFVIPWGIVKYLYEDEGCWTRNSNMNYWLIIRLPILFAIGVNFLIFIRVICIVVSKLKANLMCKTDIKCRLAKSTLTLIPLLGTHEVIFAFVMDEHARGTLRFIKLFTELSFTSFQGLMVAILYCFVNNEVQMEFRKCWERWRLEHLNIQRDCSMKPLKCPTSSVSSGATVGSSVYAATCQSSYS

[2] = system: diet-induced obese (DIO) mice; assay: Pharmacodynamic study in DIO mice: IPGTT (intraperitoneal glucose tolerance test); type: in vivo, C57BL/6J male mice; conditions: glucose 2 g/kg i.p., mean ± SEM; for iAUC, IPGTT Day 31: 30 days; for iAUC, IPGTT Day 15: 14 days
Procedure: On the day of the glucose tolerance test, animals were fasted for 4 h. Food was removed and animals were transferred to fresh cages. Animals had access to water but not to food. Tail blood glucose levels were measured, and mice were injected (t=0) with an intra-peritoneal (i.p.) glucose load of 2 g/kg (200 mg/ml glucose solution, dose volume 10 ml/kg). Tail blood glucose levels were measured at times 0, 15, 30, 60, 90, 120 minutes following the i.p. glucose load. Stratification of the animals during the IPGTT was such that for example two mice from group 1 are dosed followed by two mice from group 2, 3, 4, before the next two mice from group 1, 2, 3 etc. were handled. This was to allow for equal distribution of “time of day” throughout all groups.

[3] = biological target: T2, mouse GLP-1 receptor (Mus musculus, UniProt O35659)
T2 sequence (O35659 22-463): T1 sequence (looked up)

[4] = biological target: human glucagon receptor (Homo sapiens, UniProt P47871); assay: cell-based
Sequence of human glucagon receptor (P47871 26-477): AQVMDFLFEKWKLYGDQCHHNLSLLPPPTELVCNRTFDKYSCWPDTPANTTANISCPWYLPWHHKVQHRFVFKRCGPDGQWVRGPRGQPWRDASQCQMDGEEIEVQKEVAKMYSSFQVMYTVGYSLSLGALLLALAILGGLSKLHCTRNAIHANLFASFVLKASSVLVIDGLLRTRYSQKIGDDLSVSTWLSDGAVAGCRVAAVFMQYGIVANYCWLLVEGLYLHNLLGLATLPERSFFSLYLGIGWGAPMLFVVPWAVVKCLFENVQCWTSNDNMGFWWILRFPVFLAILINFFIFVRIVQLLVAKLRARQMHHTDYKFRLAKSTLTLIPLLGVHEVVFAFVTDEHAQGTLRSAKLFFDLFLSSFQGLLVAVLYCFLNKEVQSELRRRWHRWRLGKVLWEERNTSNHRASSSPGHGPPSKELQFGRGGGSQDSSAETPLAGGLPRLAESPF

[5] = system: diet-induced obese (DIO) mice; assay: Pharmacodynamic study in DIO mice: body weight and food intake; type: in vivo, C57BL/6J male mice; conditions: for Absolute BW Day 14 / Change in BW Day 14 / Cumulative food intake Day 14: 14 days; for Cumulative food intake Day 14: n = 2-3
Procedure: The purpose of this example is to assess the in vivo effect of select compounds on pharmacodynamic parameters in diet-induced obese (DIO) mice. The animals were treated once daily via subcutaneous injection with a liquid formulation of the test compound to assess effects on body weight, foot intake, and glucose tolerance. For comparison, the known GLP-1R/GIPR co-agonist tirzepatide and a surrogate of the GLP-1R agonist semaglutide were used as references. The semaglutide surrogate has the same pharmacological properties of semaglutide but a slightly modified structure in which the γGlu element of the substituent has been changed from the L-isomer to the D-isomer.
C57BL/6J male mice were purchased from Jackson Laboratories at approximately 8 weeks of age. Mice were group housed and fed a high-fat, high-sugar diet from Research Diets (D12331). Mice were maintained on this diet for 12 weeks prior to initializing the pharmacology studies. Mice exceeding a measured body weight of 50 grams were considered diet-induced obese (DIO) and included in pharmacology studies. Mice were exposed to a controlled 12 h:12 h light:dark cycle at ambient room temperature (22° C.) with ab libitum access to food and water. Studies were approved by and performed according to the guidelines of the Institutional Animal Care and Use Committee of the University of Cincinnati.
Animals were dosed once daily, subcutaneously with either vehicle or test compound. All injections occurred during the middle of the light phase at a fixed volume of 2-5 microliters per gram body weight.
All compounds in the study were formulated in the following buffer: 50 mM phosphate; 70 mM sodium chloride; 0.05% Tween-80, pH 7.4. Dosing solutions were formulated in glass vials and stored at 2-8° C. Dosing solutions were brought to room temperature before dosing and returned to 2-8° C. after dosing.
DIO mice were distributed into groups (n=8 per group) such that statistical variations in the mean and standard deviations of fat mass and body weight were minimized between groups. The animals were grouped to receive treatment as follows: Vehicle, tirzepatide, semaglutide surrogate or a GLP-1/GIP receptor co-agonists as described herein, where vehicle is 50 mM phosphate, 70 mM sodium chloride; 0.05% Tween-80, pH 7.4. The test compounds were dissolved in the vehicle, to stock concentrations of 100 μM, then diluted 50-200 fold in the vehicle to achieve the desired dosing solution concentrations. Animals were dosed subcutaneously once daily in the morning for each day of treatment with dosing solution at a volume of 2-5 μL per gram of body weight as necessary to achieve the desired dose (eg 0.3 nmol/kg, 1.0 nmol/kg, or 3.0 nmol/kg).
Body weight (BW) and food intake were measured immediately prior to dosing each day. The percent change in body was calculated individually for each mouse based on initial body weight prior to the first injection.

[6] = DIO mice, 0.3 nmol/kg s.c. once daily, 30 days, mean ± SEM
[7] = DIO mice, 1.0 nmol/kg s.c. once daily, 30 days, mean ± SEM
[8] = DIO mice, 3.0 nmol/kg s.c. once daily, 10 days, mean ± SEM, n = 8
[9] = DIO mice, 3.0 nmol/kg s.c. once daily, 30 days, mean ± SEM
[10] = DIO mice, 0.3 nmol/kg s.c. once daily, mean ± SEM
[11] = DIO mice, 1.0 nmol/kg s.c. once daily, mean ± SEM
[12] = DIO mice, 3.0 nmol/kg s.c. once daily, mean ± SEM

## Human GLP-1(7-37) (from UniProt P01275 98-128) (ligand)
[1]
  mGLP-1R, CRE Luc EC50: 3.5 pM

## CC[C@H](C)[C@H](NC(=O)[C@H](CO)NC(=O)[C@H](Cc1ccc(O)cc1)NC(=O)[C@H](CC(=O)O)NC(=O)[C@H](CO)NC(=O)[C@@H](NC(=O)[C@H](Cc1ccccc1)NC(=O)[C@@H](NC(=O)CNC(=O)[C@H](CCC(=O)O)NC(=O)C(C)(C)NC(=O)[C@@H](N)Cc1ccc(O)cc1)[C@@H](C)O)[C@@H](C)O)C(=O)N[C@@H](Cc1ccc(O)cc1)C(=O)N[C@@H](CC(C)C)C(=O)N[C@@H](CC(=O)O)C(=O)N[C@@H](CCCCN)C(=O)N[C@@H](CCC(N)=O)C(=O)N[C@@H](C)C(=O)N[C@@H](C)C(=O)NC(C)(C)C(=O)N[C@@H](CCCCNC(=O)[C@@H](N)CCCCNC(=O)[C@@H](N)CCCCNC(=O)CC[C@H](NC(=O)CCCCCCCCCCCCCCCCC(=O)O)C(=O)O)C(=O)N[C@@H](Cc1ccccc1)C(=O)N[C@H](C(=O)N[C@@H](CC(N)=O)C(=O)N[C@@H](Cc1c[nH]c2ccccc12)C(=O)N[C@@H](CC(C)C)C(=O)N[C@@H](CC(C)C)C(=O)N[C@@H](C)C(=O)NCC(=O)NCC(=O)N1CCC[C@H]1C(=O)N[C@@H](CO)C(=O)N[C@@H](CO)C(=O)NCC(=O)N[C@@H](C)C(=O)N1CCC[C@H]1C(=O)N1CCC[C@H]1C(=O)N1CCC[C@H]1C(=O)N[C@@H](CO)C(N)=O)C(C)C [Compound 9] (H-Y[Aib]EGTFTSDYSIYLDKQAA[Aib]K([εLys-εLys-γGlu-C18 diacid])FVNWLLAGGPSSGAPPPS-NH2; N-terminus assumed)
[2]; 0.3 nmol/kg s.c. once daily
  iAUC, IPGTT Day 31: 14979 ± 3423 mg·min/dL
[2]; 1.0 nmol/kg s.c. once daily
  iAUC, IPGTT Day 31: 7714 ± 1722 mg·min/dL
[2]; 3.0 nmol/kg s.c. once daily
  iAUC, IPGTT Day 31: 4073 ± 1764 mg·min/dL
[3]
  EC50: 2.5 pM
[4]
  EC50: > 10 nM
[5]; DIO mice, 0.3 nmol/kg group, baseline Day 0 (30-day study), mean ± SEM
  Absolute BW Day 0: 66.5 ± 2.6 grams
[5]; [6]
  Absolute BW Day 31: 66.9 ± 3.2 grams
  Change in BW Day 31: 3.4 ± 1.7%
[5]; DIO mice, 0.3 nmol/kg s.c. once daily, 30 days, mean ± SEM, n = 2
  Cumulative food intake Day 31: 87.4 ± 5.9 grams
[5]; DIO mice, 1.0 nmol/kg and 3.0 nmol/kg doses, 30 days
  Performance compared with semaglutide surrogate in all parameters (in words): superior performance to semaglutide surrogate
[5]; DIO mice, 1.0 nmol/kg group, baseline Day 0 (30-day study), mean ± SEM
  Absolute BW Day 0: 70.0 ± 1.9 grams
[5]; [7]
  Absolute BW Day 31: 50.9 ± 2.2 grams
  Change in BW Day 31: −23.9 ± 2.6%
[5]; DIO mice, 1.0 nmol/kg s.c. once daily, 30 days, mean ± SEM, n = 2
  Cumulative food intake Day 31: 60.4 ± 4.5 grams
[5]; DIO mice, 3.0 nmol/kg group, baseline Day 0 (10-day study), mean ± SEM, n = 8
  Absolute BW Day 0: 63.8 ± 0.8 grams
[5]; DIO mice, 3.0 nmol/kg group, baseline Day 0 (30-day study), mean ± SEM
  Absolute BW Day 0: 65.8 ± 1.4 grams
[5]; DIO mice, 3.0 nmol/kg s.c. once daily, 10 days, mean ± SEM, n = 2
  Cumulative food intake Day 10: 8.3 ± 1.0 grams
[5]; [8]
  Absolute BW Day 10: 51.3 ± 0.9 grams
  Change in BW Day 10: −19.6 ± 0.7%
[5]; [9]
  Absolute BW Day 31: 40.0 ± 2.4 grams
  Change in BW Day 31: −39.1 ± 3.8%
[5]; DIO mice, 3.0 nmol/kg s.c. once daily, 30 days, mean ± SEM, n = 2
  Cumulative food intake Day 31: 46.4 ± 6.6 grams
[5]; DIO mice, 0.3, 1.0 or 3.0 nmol/kg s.c. daily for 30 days
  Response on food intake, body weight and glucose tolerance (in words): dose-dependent response

## Tirzepatide: known GLP-1R/GIPR co-agonist used as reference [reference compound]
[2]; 0.3 nmol/kg s.c. once daily
  iAUC, IPGTT Day 15: 13005 ± 2962 mg·min/dL
[2]; 1.0 nmol/kg s.c. once daily
  iAUC, IPGTT Day 15: 10365 ± 3585 mg·min/dL
[2]; 3.0 nmol/kg s.c. once daily
  iAUC, IPGTT Day 15: 8974 ± 1804 mg·min/dL
[5]; DIO mice, 0.3 nmol/kg group, baseline Day 0 (14-day study), mean ± SEM
  Absolute BW Day 0: 64.1 ± 1.7 grams
[5]; [10]
  Absolute BW Day 14: 58.2 ± 1.9 grams
  Change in BW Day 14: −9.4 ± 1.2%
  Cumulative food intake Day 14: 32.3 ± 1.9 grams
[5]; DIO mice, 1.0 nmol/kg group, baseline Day 0 (14-day study), mean ± SEM
  Absolute BW Day 0: 63.5 ± 1.6 grams
[5]; [11]
  Absolute BW Day 14: 49.8 ± 1.8 grams
  Change in BW Day 14: −21.0 ± 1.2%
  Cumulative food intake Day 14: 18.4 ± 0.7 grams
[5]; DIO mice, 3.0 nmol/kg group, baseline Day 0 (14-day study), mean ± SEM
  Absolute BW Day 0: 63.6 ± 2.5 grams
[5]; [12]
  Absolute BW Day 14: 45.1 ± 2.1 grams
  Change in BW Day 14: −29.0 ± 2.4%
  Cumulative food intake Day 14: 16.4 ± 2.3 grams
